# Results from patent EP0440303A1 (PROBICOM RESEARCH B.V., priority 1990, dated 1991).
# Where two headings read alike, the source gives them in different places. Where a SMILES comes first, the peptide text is derived from it.
# T1: tripeptidase of L.lactis subsp. cremoris Wg2 (Lactococcus lactis subsp. cremoris, UniProt P0C2T7)
# T1 sequence (P0C2T7 1-413): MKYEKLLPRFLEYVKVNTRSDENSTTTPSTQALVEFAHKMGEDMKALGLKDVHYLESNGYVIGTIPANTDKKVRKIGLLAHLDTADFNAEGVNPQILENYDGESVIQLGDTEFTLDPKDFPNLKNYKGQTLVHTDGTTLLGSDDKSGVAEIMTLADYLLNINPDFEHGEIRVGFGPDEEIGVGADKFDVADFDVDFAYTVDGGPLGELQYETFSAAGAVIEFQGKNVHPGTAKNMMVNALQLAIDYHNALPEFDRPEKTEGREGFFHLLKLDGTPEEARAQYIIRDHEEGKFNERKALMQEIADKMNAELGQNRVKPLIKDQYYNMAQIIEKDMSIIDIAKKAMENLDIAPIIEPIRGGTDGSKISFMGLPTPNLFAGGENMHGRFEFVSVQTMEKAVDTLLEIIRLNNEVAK
# B1: tripeptidase of L.lactis subsp. cremoris Wg2 (Lactococcus cremoris) (protein)
# chain: T1 sequence (P0C2T7 1-413)
# notes: the resulting supernatant (i.e. cell-free extract) was used for enzyme isolation; made in house; host or cells: Natural producer L. lactis subsp. cremoris Wg2 (proteinase-negative variant), not recombinant; Purified by DEAE-Sephacel, Phenyl-Sepharose, Sephadex G-100 SF and HPLC TSK G3000 SW
# Experiments:
# [1] = target: T1, tripeptidase of L.lactis subsp. cremoris Wg2; assay: Effects of chemical agents on the peptidase activity (leu3 hydrolysis); type: biochemical
# [2] = target: T1, tripeptidase of L.lactis subsp. cremoris Wg2; assay: Substrate specificity: peptide hydrolysis analysed by TLC; type: biochemical; parameters: key: + : hydrolysis; - : no hydrolysis; settings: peptide hydrolysis by the purified peptidase, 2 mM substrate in 20 mM HEPES (pH 7.0), 60 min at 30°C
# [3] = target: T1, tripeptidase of L.lactis subsp. cremoris Wg2; assay: biochemical; settings: read-out: inhibition of the enzyme activity
# Procedure: Peptidase activity was determined by measuring the release of leucine from the tripeptide leucyl-leucyl-leucine (leu₃) (2 mM in 20 mM 4-(2-hydroxyethyl)-1-piperazine-ethane-sulphonic acid [HEPES], pH 7.0). Enzyme and substrate were incubated for 10 min. at 30°C, and the release of leucine was measured by the modified cadmium-ninhydrin method as described by Doi et al., Anal.Biochem. 118, 1981, 173-184. […] Peptidase activity was determined as follows: the reaction mixture containing 2 mM substrate in 20 mM HEPES (pH 7.0) and a suitable amount of enzyme was incubated for 60 min. at 30°C.
# All the metal ions were added in the form of chlorides to exclude a possible effect of the anions.
# [4] = substrate: CC(C)C[C@H](NC(=O)[C@H](CC(C)C)NC(=O)[C@@H](N)CC(C)C)C(=O)O; assay: Determination of kinetic parameters for leu3 hydrolysis (coupled enzyme reaction); type: biochemical, L.lactis subsp. cremoris Wg2; settings: other: leu₃ as substrate, 30°C
# [5] = NEM 0.5 mM, cystine 0.05 mM, phenylarsine oxide 0.1 mM, DTT 1 mM, β-mercaptoethanol 0.4 mM, ferricyanide 3 mM after the reducing agents
# [6] = summary statement, concentration not given
# [7] = pH 7, read-out: relative activity (%)
Molecule,activity [2],further results
"O[C@H](CS)[C@H](O)CS (racemic) [DTT, dithiothreitol]",,"effect on the enzyme activity (in words) [1, 5]: strong inhibition; activity at 1000 µM ([1]; reagent 1 mM, 0.84 μg enzyme/ml, 10 min at pH 7 (20°C) before leu3 was added, none = 100, read-out: relative activity (%)): 4%; effect on the enzyme (summary in words) [1, 6]: strong inhibition"
"O=C(O)c1cc[c]([Hg][Cl])cc1 [pCMB, p-chloromercuribenzoate]",,effect on the enzyme (summary in words) [1]: not inhibited
"CC(C)C[C@H](NC(=O)[C@H](CC(C)C)NC(=O)[C@@H](N)CC(C)C)C(=O)O [Leu-Leu-Leu, leucyl-leucyl-leucine] (H-Leu-Leu-Leu-OH)",+,
C[C@H](N)C(=O)N[C@@H](Cc1cnc[nH]1)C(=O)N[C@@H](C)C(=O)O [Ala-His-Ala] (H-Ala-His-Ala-OH),+,
NC(Cc1cnc[nH]1)C(=O)NCC(=O)NCC(=O)O (stereo not drawn) [His-Gly-Gly],+,
N[C@@H](CCC(=O)O)C(=O)N[C@@H](CCC(=O)O)C(=O)O [Glu-Glu] (H-Glu-Glu-OH),-,
N[C@@H](Cc1c[nH]c2ccccc12)C(=O)NCC(=O)NCC(=O)O [Trp-Gly-Gly] (H-Trp-Gly-Gly-OH),+,
"COC(CNC(=O)c1ccccc1OCC(=O)O)[CH2][Hg][OH] (stereo not shown) [Mersalyl, o-(3-hydroxymercuri-2-methoxypropyl)carbamylphenoxyacetate]",,effect on the enzyme (summary in words) [1]: not inhibited
CC(C)CC(NC(=O)CNC(=O)CN)C(=O)O (stereo not shown),+,
C[C@H](NC(=O)[C@@H](N)CCC(=O)O)C(=O)O [Glu-Ala] (H-Glu-Ala-OH),-,
CSCC[C@H](NC(=O)[C@H](Cc1ccccc1)NC(=O)CNC(=O)CNC(=O)[C@@H](N)Cc1ccc(O)cc1)C(=O)O [Met-enkephalin],-,
CSCCC(N)C(=O)NCC(=O)NCC(=O)O (stereo not drawn) [Met-Gly-Gly],+,
oxidized β-chain insulin,-,
"OCCS [β-Mercaptoethanol, β-mercaptoethanol]",,"effect on the enzyme activity (in words) [1, 5]: strong inhibition; activity at 400 µM [1, 7]: 14%; effect on the enzyme (summary in words) [1, 6]: strong inhibition"
NCCCC[C@H](NC(=O)[C@@H](N)CCC(=O)O)C(=O)O [Glu-Lys] (H-Glu-Lys-OH),-,
C[C@H](N)C(=O)N[C@@H](C)C(=O)N[C@@H](C)C(=O)N[C@@H](C)C(=O)N[C@@H](C)C(=O)O [Ala5],-,
CC(C)CC(NC(=O)C(NC(=O)C(C)N)C(C)C)C(=O)O (stereo not drawn) [Ala-Val-Leu],+,
NCC(=O)NCC(=O)NC(Cc1ccccc1)C(=O)O (stereo not drawn) [Gly-Gly-Phe],+,
C[C@H](N)C(=O)N[C@@H](C)C(=O)N[C@@H](C)C(=O)O [Ala3],+,

Molecule,activity [2],further results
"O=S(=O)(O)c1cc[c]([Hg][Cl])cc1 [pCMBS, p-chloromercuribenzenesulphonate]",,effect on the enzyme (summary in words) [1]: not inhibited
C[C@H](N)C(=O)N[C@@H](CC(=O)O)C(=O)O [Ala-Asp] (H-Ala-Asp-OH),-,
C[C@H](N)C(=O)N[C@@H](C)C(=O)N[C@@H](C)C(=O)N[C@@H](C)C(=O)O [Ala4] (H-AAAA-OH),-,
NCC(=O)NCC(=O)O [Gly-Gly] (H-Gly-Gly-OH),-,
CC(C)C[C@H](N)C(=O)NCC(=O)O [Leu-Gly] (H-Leu-Gly-OH),-,
NCC(=O)NCC(=O)NCC(=O)O [Gly-Gly-Gly] (H-Gly-Gly-Gly-OH),+,
NCC(=O)NC(Cc1cnc[nH]1)C(=O)NCC(=O)O (stereo not drawn) [Gly-His-Gly],+,
O=C(O)CNC(=O)CNC(=O)C1CCCN1 (stereo not drawn) [Pro-Gly-Gly],+,
CSCC[C@H](NC(=O)[C@@H](N)CC(C)C)C(=O)O [Leu-Met] (H-Leu-Met-OH),-,
C[C@H](N)C(=O)N[C@@H](C)C(=O)O [Ala2] (H-Ala-Ala-OH),-,
NCC(=O)N1CCC[C@H]1C(=O)NCC(=O)NCC(=O)O [Gly-Pro-Gly-Gly] (H-GPGG-OH),-,
CC(C)[C@H](NC(=O)[C@@H](N)CCC(=O)O)C(=O)N[C@@H](Cc1ccccc1)C(=O)O [Glu-Val-Phe] (H-Glu-Val-Phe-OH),+,
CSCC[C@H](NC(=O)[C@H](CC(C)C)NC(=O)CNC(=O)[C@H](Cc1ccccc1)NC(=O)[C@H](Cc1ccccc1)NC(=O)[C@H](CCC(N)=O)NC(=O)[C@H](CCC(N)=O)NC(=O)[C@@H]1CCCN1C(=O)[C@H](CCCCN)NC(=O)[C@@H]1CCCN1C(=O)[C@@H](N)CCCNC(=N)N)C(N)=O [Substance P],-,
CC(NC(=O)C1CCCN1C(=O)CN)C(=O)O (stereo not drawn) [Gly-Pro-Ala],-,
CC(C)[C@H](NC(=O)[C@@H](N)CCC(=O)O)C(=O)O [Glu-Val] (H-Glu-Val-OH),-,
NCCC[C@H](NC(=O)[C@H](CCCN)NC(=O)[C@@H](N)CCCN)C(=O)O [Orn-Orn-Orn],+,
"CC(C)C[C@H](N)C(=O)NCC(=O)NCC(=O)O [Leu-Gly-Gly, leucyl-glycyl-glycine] (H-Leu-Gly-Gly-OH)",+,
CC(C)C[C@H](NC(=O)[C@@H](N)CC(C)C)C(=O)O [Leu-Leu],-,
CC(C)CC(NC(=O)C(Cc1ccccc1)NC(=O)CN)C(=O)O (stereo not drawn) [Gly-Phe-Leu] (H-Gly-Phe-Leu-OH; configuration not given here),+,

Molecule,activity [2],further results
O=C(O)CN(CCN(CC(=O)O)CC(=O)O)CC(=O)O [EDTA],,inhibition at 200 µM [3]: 79%
NC(Cc1ccccc1)C(=O)NCC(=O)NCC(=O)O (stereo not drawn) [Phe-Gly-Gly],+,
CC(NC(=O)C(CO)NC(=O)CN)C(=O)O (stereo not drawn) [Gly-Ser-Ala],+,
C[C@H](N)C(=O)N1CCC[C@H]1C(=O)N[C@@H](Cc1ccccc1)C(=O)O [Ala-Pro-Phe] (H-Ala-Pro-Phe-OH),-,
N=C(N)NCCCC(N)C(=O)NCC(=O)NCC(=O)O (stereo not drawn) [Arg-Gly-Gly],+,
CC(C)CC(NC(=O)CN)C(=O)NC(Cc1ccc(O)cc1)C(=O)O (stereo not drawn) [Gly-Leu-Tyr] (H-Gly-Leu-Tyr-OH; configuration not given here),+,
"N[C@@H](CSSC[C@H](N)C(=O)O)C(=O)O [Cystine, cystine]",,"effect on the enzyme activity (in words) [1, 5]: had no effect on the enzyme activity; activity at 50 µM ([1]; reagent 0.05 mM, 0.84 μg enzyme/ml, 10 min at pH 7 (20°C) before leu3 was added, none = 100, read-out: relative activity (%)): 118%"
C[C@H](N)C(=O)N1CCC[C@H]1C(=O)N[C@@H](C)C(=O)O [Ala-Pro-Ala] (H-Ala-Pro-Ala-OH),-,
C[C@H](N)C(=O)N[C@@H](C)C(=O)N[C@@H](C)C(=O)N[C@@H](C)C(=O)N[C@@H](C)C(=O)N[C@@H](C)C(=O)O [Ala6],-,
CC(NC(=O)C(Cc1ccc(O)cc1)NC(=O)CN)C(=O)O (stereo not drawn) [Gly-Tyr-Ala],+,
CC(C)[C@H](N)C(=O)NCC(=O)NCC(=O)O [Val-Gly-Gly] (H-Val-Gly-Gly-OH),+,
CC(C)C[C@H](NC(=O)[C@@H](N)Cc1ccccc1)C(=O)O [Phe-Leu] (H-Phe-Leu-OH),-,
N[C@@H](Cc1ccc(O)cc1)C(=O)NCC(=O)NCC(=O)O [Tyr-Gly-Gly] (H-Tyr-Gly-Gly-OH),+,
"Bradykinin (RPPGFSPFR; Bradykinin; UniProt P01042 381-389, looked up)",-,
NC(CO)C(=O)NCC(=O)NCC(=O)O (stereo not drawn) [Ser-Gly-Gly],+,
Neurotensin,-,
"CCN1C(=O)C=CC1=O [NEM, N-ethylmaleimide]",,"effect on the enzyme activity (in words) [1]: slightly inhibited the activity; activity at 500 µM [1, 7]: 76%"
B1,,Km [4]: 150 µM; Vmax [4]: 151 µmol/min.mg protein; kcat [4]: 264 s⁻¹
